Consider 1 compound from article PMC6050476, “Pre-clinical Pharmacokinetic and Metabolomic Analyses of Isorhapontigenin, a Dietary Resveratrol Derivative” (Frontiers in Pharmacology, 2018).

A short description of series [1]: Stock solution stability of isorhapontigenin. It counts as physicochemical. The note with it: 24 °C, 10 days; stock solution in DMSO. On the procedure: Stock solutions of ISO were prepared by dissolution in DMSO and they were stored at room temperature. The stock solutions were further diluted using blank rat plasma to prepare the calibration standards and QC samples. The stock solution of IS was dissolved in acetonitrile to a concentration of 10 μg/mL. 100 μL IS solution was aliquoted into 1.5-mL polypropylene tubes for storage at −80°C. During sample preparation, this solution was further diluted to the working concentration of 10 ng/mL using acetonitrile containing 0.18 μM of disodium EDTA and stored at 4°C.
The dilution integrity was confirmed using a dilution factor of 20. In the presence of L-ascorbic acid (0.8 mg/mL), ISO appeared to stable in plasma; similarly, addition of EDTA in IS acetonitrile solution (0.18 μM) enhanced the post-preparative stability. The details in accuracy, precision, stability, and matrix effect can be found in Supplementary Tables S1–S3.

In the next series the test system is plasma metabolites. Description: Plasma metabolomic profiling after 1-week isorhapontigenin intervention (GC–MS/MS). It counts as in vivo, Sprague-Dawley rats. The note with it: 1-week daily oral ISO 100 μmol/kg vs vehicle, rat plasma. How it is done:
(§1) Twenty-two rats were divided into four groups. Group 1 (n = 5) received a single bolus intravenous injection of ISO at the dose of 90 μmol/kg (23.2 mg/kg). Serial blood samples were collected before dosing and at 5, 15, 30, 60, 90, 120, 180, 240, 300, 420, 540, and 720 min after intravenous injection. Group 2 (n = 5) received a single oral administration of ISO at the dose of 200 μmol/kg (51.6 mg/kg). Serial blood samples were collected before dosing and at 15, 30, 45, 60, 90, 120, 180, 240, 300, 420, 540, and 720 min after oral gavage. Group 3 (n = 5) received daily oral pre-treatment of oral dosing vehicle (2 mL/kg) while Group 4 (n = 7) received daily oral pre-treatment of ISO at the dose of 100 μmol/kg (25.8 mg/kg) for 1 week. On day 7, ∼8–10 h after the last pre-treatment dose, surgery was performed on rats in Groups 3 and 4 for jugular vein cannulation, and blood samples were also collected from Groups 3 and 4 for metabolomic study. On day 8, the pharmacokinetic study was carried out on these two groups of animals at the dose of 100 μmol/kg (25.8 mg/kg) using the same blood sampling schedule as Group 2.
The plasma samples collected from rats receiving 1-week daily oral dosing of ISO at 100 μmol/kg (25.8 mg/kg) were subjected to metabolomic study using the rats receiving vehicle as control.
Plasma samples (30 μL aliquots in Eppendorf tubes) were thawed to room temperature (25°C). Myristic-d27 acid (20 μL of 200 μg/mL solution in methanol, IS) and 200 μL of methanol were added to each sample. Samples were vortexed for 5 min at room temperature and centrifuged for 10 min at 15,000 g (4°C). The top 200 μL of each supernatant was transferred to a glass centrifuge tube and dried under nitrogen gas. The dried samples were re-suspended in 100 μL of toluene, vortexed vigorously for 10 s, and dried again under nitrogen. A two-step derivatization method was used for chemical derivatization of the metabolites. Samples were first incubated with 50 μL of 2% methoxy-amine chloride in pyridine for 1.5 h at 60°C. Next, 50 μL of […] was added and the samples were incubated again for 1 h at 60°C. A total of 80 μL of derivatized samples were transferred to glass vials for GC–MS/MS analysis ([Chen et al., 2016a]). Pooled rat plasma from different plasma samples was used as QC and distilled water as blank samples. Two pooled plasma samples were injected before the first study sample and three pooled plasma samples were injected after every six study samples which serve as QC. The blank samples were injected at the beginning, at the middle, and at the end of the sample batch ([Phua et al., 2015]; [Chen et al., 2016a]).
GC–MS/MS analysis was performed using a Shimadzu TQ8040 gas chromatography-triple quadrupole mass spectrometer (Shimadzu Corporation, Japan). The GC injector port was set at 250°C and injection volume was 1 μL with a spilt ratio of 1:10. Chromatographic separation was achieved by a capillary column (BPX-5, 30 m × 0.25 mm × 0.25 μm, SGE Analytical Science, Australia) through constant helium carrier gas flow at 1.14 mL/min. The oven temperature was first held at 60°C for 2 min, followed by increasing temperature ramp of 15°C/min to 330°C, and then held at 330°C for 3 min. The interface and ion source were set at 280 and 200°C, respectively. The mass spectrometer was operated in the MRM mode.
The Shimadzu Smart Metabolites Database (Shimadzu Corporation, Japan) which contains a panel of 475 different endogenous metabolites was applied to identify the metabolites in rat plasma samples in this widely targeted metabolomics analysis. This database contains the retention indices and two MRM transitions of each of the 475 endogenous metabolites which facilitate simple, fast, and reliable metabolite identification and semi-quantification. This strategy has been successfully applied to many studies ([Hashimoto et al., 2017]; [Nishiumi et al., 2017]; [Tomonaga et al., 2018]). […]

Series [2] can be described thus: Body weight before and after 1-week ISO intervention. The format is in vivo, Sprague-Dawley rats. The note with it: 1-week daily oral ISO 100 μmol/kg, normal diet; p = 0.74 and 0.89. How it is done:
as §1
One-week daily oral dosing of ISO decreased plasma levels of some di-aminoacid and N-acetyl amino acids such as glycyl-glycine, N-acetyl-glycine, N-acetyl-glutamine, and N-acetyl-orthinine. […] In this study, the healthy Sprague-Dawley rats were fed with normal diet. […]

Turning to `COc1cc(/C=C/c2cc(O)cc(O)c2)ccc1O` [isorhapontigenin, trans-3,5,4′-trihydroxy-3′-methoxystilbene], the “Stock solution stability (% remaining)” value in series [1] is 96.7 ± 3.0 % remaining. In the series with plasma metabolites, the “Fold change of plasma 2-Aminoisobutyric acid” value amounted to 1.351, the “Fold change of plasma 4-Hydroxyproline” value was 0.564, the “Fold change of plasma Acetylglycine” value was found to be 0.508 and the “Fold change of plasma Allantoin” value is 0.545. For the same compound, in the series on plasma metabolites, the “Fold change of plasma Arachidonic acid” value is given as 0.789, the “Fold change of plasma Aspartic acid” value was found to be 0.475, the “Fold change of plasma Cadaverine” value is recorded as 0.54 and the “Fold change of plasma Catechol” value stood at 1.411. Further, in the series with plasma metabolites, the “Fold change of plasma Cholesterol” value amounted to 0.789, the “Fold change of plasma Eicosapentaenoic acid” value was 0.762, the “Fold change of plasma Fructose” value worked out at 0.608 and the “Fold change of plasma Glycerol 2-phosphate” value was 0.73. In the series with plasma metabolites, the “Fold change of plasma Glycyl-glycine” value is 0.648, the “Fold change of plasma Linoleic acid” value is reported as 0.82, the “Fold change of plasma N-Acetyl-ornithine” value is 0.474 and the “Fold change of plasma N-Acetylglutamine” value worked out at 0.804. Moreover, in the series on plasma metabolites, the “Fold change of plasma Psicose” value came out at 0.709, the “Fold change of plasma Sorbose” value was found to be 0.698, the “Fold change of plasma Tagatose” value amounted to 0.705 and the “Fold change of plasma Thymine” value was found to be 1.198. Besides, the “Fold change of plasma Tryptamine” value in the series with plasma metabolites was 1.469. Moreover, the “effect on plasma glucose levels” value in the series on plasma metabolites (no food restriction) is “did not change glucose levels”. Moreover, the “body weights, vehicle vs ISO treatment group, before and after ISO intervention” value in series [2] is “remained similar”.
